Results taken from US12723063B2, “GIPR-agonist compounds” (Eli Lilly and Company, priority 2019, dated 2026).
*1 amine or outer side, *2 acyl side, *3 side chain or, on linkers, in order; H or OH if unused. Where a SMILES comes first, the peptide text is derived from it. Side-chain parts run from the residue outwards. [ ]: non-standard residue; d: D form. The star is where a group is joined. C20 diacid = O=C(O)CCCCCCCCCCCCCCCCCCC(=O)*; γGlu = O=C(O)[C@H](CCC(=O)[*:2])N[*:1]; 4Pal = N[C@@H](Cc1ccncc1)C(=O)O; αMeL = CC(C)C[C@](C)(N)C(=O)O; Orn = NCCC[C@H](N)C(=O)O; AEEA = NCCOCCOCC(=O)O; Aib = CC(C)(N)C(=O)O

Tests used:
[1] = molecular target: T1, human GIPR (Homo sapiens, UniProt P48546); assay: [125I]-GIP binding, SPA with WGA beads, 0.1% bacitracin; conditions: geometric mean, read-out: hGIPR Ki
T1 construct: expressed in transfected cells; crude membranes
T1 sequence (P48546 22-466): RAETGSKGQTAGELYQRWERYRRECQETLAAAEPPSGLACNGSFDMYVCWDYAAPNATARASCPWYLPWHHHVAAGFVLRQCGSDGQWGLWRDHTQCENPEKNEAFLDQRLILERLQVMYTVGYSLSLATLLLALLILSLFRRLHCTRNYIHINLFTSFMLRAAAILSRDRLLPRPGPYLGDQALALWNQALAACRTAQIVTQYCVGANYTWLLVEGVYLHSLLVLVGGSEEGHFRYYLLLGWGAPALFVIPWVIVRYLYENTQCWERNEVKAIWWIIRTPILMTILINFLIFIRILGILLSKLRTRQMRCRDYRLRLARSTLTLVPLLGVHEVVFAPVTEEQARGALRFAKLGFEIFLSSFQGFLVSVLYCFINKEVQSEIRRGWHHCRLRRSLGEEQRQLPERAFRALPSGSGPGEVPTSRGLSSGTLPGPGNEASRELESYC
Summary of the method: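 Ki values are geometric means (SEM, n independent days), derived from four-parameter nonlinear regression of IC50. Membranes came from hGIPR-expressing CHO cells.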

[2] = molecular target: T2, human glucose-dependent insulinotropic peptide receptor (GIPR) (Homo sapiens, UniProt P48546); assay: cAMP functional assay (HTRF) in HEK293 cells in presence of 0.1% casein; type: cell-based; conditions: HEK293 cells expressing human GIPR, geometric mean, read-out: hGIPR cAMP Rel EC50 nM (SEM, n)
T2 construct: expressed in transfected cells; host or cells: HEK293
T2 sequence (P48546 22-466): T1 sequence (P48546 22-466)

| Compound | Ki [1] [nM] | EC50 [2] [nM] |
| --- | --- | --- |
| CC[C@H](C)[C@H](NC(=O)[C@H](CCCN)NC(=O)[C@H](CC(=O)O)NC(=O)[C@H](CC(C)C)NC(=O)[C@](C)(CC(C)C)NC(=O)[C@@H](NC(=O)[C@H](CO)NC(=O)[C@H](Cc1ccc(O)cc1)NC(=O)[C@H](CC(=O)O)NC(=O)[C@H](CO)NC(=O)[C@@H](NC(=O)[C@H](Cc1ccccc1)NC(=O)[C@@H](NC(=O)CNC(=O)[C@H](CCC(=O)O)NC(=O)C(C)(C)NC(=O)[C@@H](N)Cc1ccc(O)cc1)[C@@H](C)O)[C@@H](C)CC)[C@@H](C)CC)C(=O)N[C@@H](Cc1c[nH]cn1)C(=O)N[C@@H](CCC(N)=O)C(=O)NC(C)(C)C(=O)N[C@@H](CC(=O)O)C(=O)N[C@@H](Cc1ccccc1)C(=O)N[C@H](C(=O)N[C@@H](CCC(=O)O)C(=O)N[C@@H](Cc1ccncc1)C(=O)N[C@@H](CCCCNC(=O)COCCOCCNC(=O)COCCOCCNC(=O)CC[C@H](NC(=O)CCCCCCCCCCCCCCCCCCC(=O)O)C(=O)O)C(=O)N[C@@H](CC(C)C)C(=O)N[C@@H](CCC(=O)O)C(=O)NCC(=O)NCC(=O)N1CCC[C@H]1C(=O)N[C@@H](CO)C(=O)N[C@@H](CO)C(=O)NCC(=O)N[C@@H](C)C(=O)N1CCC[C@H]1C(=O)N1CCC[C@H]1C(=O)N1CCC[C@H]1C(=O)N[C@@H](CO)C(N)=O)C(C)C [Example 108] (H-Y[Aib]EGTFISDYSI[αMeL]LD[Orn]IHQ[Aib]DFVE[4Pal]K([AEEA-AEEA-γGlu-C20 diacid])LEGGPSSGAPPPS-NH2) | 0.134 | 0.0088 |
| CC[C@H](C)[C@H](NC(=O)[C@H](CCCN)NC(=O)[C@H](CC(=O)O)NC(=O)[C@H](CC(C)C)NC(=O)[C@](C)(CC(C)C)NC(=O)[C@@H](NC(=O)[C@H](CO)NC(=O)[C@H](Cc1ccc(O)cc1)NC(=O)[C@H](CC(=O)O)NC(=O)[C@H](CO)NC(=O)[C@@H](NC(=O)[C@H](Cc1ccccc1)NC(=O)[C@@H](NC(=O)CNC(=O)[C@H](CCC(=O)O)NC(=O)C(C)(C)NC(=O)[C@@H](N)Cc1ccc(O)cc1)[C@@H](C)O)[C@@H](C)CC)[C@@H](C)CC)C(=O)N[C@@H](Cc1c[nH]cn1)C(=O)N[C@@H](CCC(N)=O)C(=O)NC(C)(C)C(=O)N[C@@H](CCC(=O)O)C(=O)N[C@@H](Cc1ccccc1)C(=O)N[C@H](C(=O)N[C@@H](CCC(=O)O)C(=O)N[C@@H](Cc1ccncc1)C(=O)N[C@@H](CCCCNC(=O)COCCOCCNC(=O)COCCOCCNC(=O)CC[C@H](NC(=O)CCCCCCCCCCCCCCCCCCC(=O)O)C(=O)O)C(=O)N[C@@H](CC(C)C)C(=O)N[C@@H](CCC(=O)O)C(=O)N[C@@H](C)C(=O)NCC(=O)N1CCC[C@H]1C(=O)N[C@@H](CO)C(=O)N[C@@H](CO)C(=O)NCC(=O)N[C@@H](C)C(=O)N1CCC[C@H]1C(=O)N1CCC[C@H]1C(=O)N1CCC[C@H]1C(=O)N[C@@H](CO)C(N)=O)C(C)C [Example 122] (H-Y[Aib]EGTFISDYSI[αMeL]LD[Orn]IHQ[Aib]EFVE[4Pal]K([AEEA-AEEA-γGlu-C20 diacid])LEAGPSSGAPPPS-NH2) | 0.0311 | 0.01 |
